Three molecules from ChEMBL document CHEMBL2163194, “Production of cytotoxic glidobactins/luminmycins by Photorhabdus asymbiotica in liquid media and live crickets” (J Nat Prod, 2012) can be followed below.

For orientation: IC50 means the concentration that inhibits the measured activity by half.

Series [1] relates to NIH3T3. The series can be described thus: Cytotoxicity against mouse NIH/3T3 cells assessed as reduction in cell viability after 72 hrs by MTT assay. The format is cell-based. The following applies: nih3t3, 72 h.
Series [2] concerns MIA PaCa-2. Description: Cytotoxicity against human MIAPaCa2 cells assessed as reduction in cell viability after 72 hrs by MTT assay. Type of series: functional, cell-based. The following applies: MIA PaCa-2, 72 h.
Series [3] in a line: Inhibition of 20S proteasome in human MIAPaCa2 cells after 90 mins by fluorescence-based […]. Type of series: cell-based. The following applies: mia paca-2.

SMILES strings stand for the structures.

Take `CCCCCCC/C=C/C=C/C(=O)N[C@H](C(=O)N[C@H]1C[C@@H](O)CCNC(=O)/C=C/[C@H](C)NC1=O)[C@@H](C)O` [GLIDOBACTIN A]: the Activity entry in series [1] is listed as “Non-toxic”. Moreover, the results for the IC50 in series [2] and in series [3] were 7 nM and 69 nM, respectively.

On to `CCCCCCC/C=C/C=C/C(=O)N[C@H](C(=O)N[C@H]1CCCCNC(=O)/C=C/[C@H](C)NC1=O)[C@@H](C)O` [LUMINMYCIN A], for which the Activity entry in series [1] is “Non-toxic”. Besides, the values for the IC50 in series [2] and in series [3] were 18 nM and 88 nM, respectively.

`CC(C)CCCCC/C=C/C=C/C(=O)N[C@H](C(=O)N[C@H]1CCCCNC(=O)/C=C/[C@H](C)NC1=O)[C@@H](C)O` [LUMINMYCIN D]: the Activity entry in series [1] was “Non-toxic”. Besides, the results for the IC50 in series [2] and in series [3] were 110 nM and 380 nM, respectively.
